Reference: patent US9211325B2, “Peptide adjuvants” (priority 2008, dated 2015)

Key:
Parameters in all cases: species or system BALB/c mice
Conditions in all cases: mouse, in vivo
[1] = tested on: homologous influenza virus isolate used for immunization (MDCK cells, CPE)
[2] = tested on: HA (peptide pools derived from HA)
[3] = tested on: Total anti-HBS antibodies
[4] = tested on: Total anti-influenza IgG antibodies

Substance | Neutralizing antibody response, FIG. 2 [1] | T-cell response (ELISPOT), FIG. 18 [2] | other results
CHKWD (Short peptide sequence not known to occur in nature) [5mer1] | did not cause a strong neutralizing antibody response | – | –
CKWRC (Short peptide sequence not known to occur in nature) [5mer3] | did not cause a strong neutralizing antibody response | – | –
CYWWW (Short peptide sequence not known to occur in nature) | – | generated a significant T-cell response | –
CYYWC (Short peptide sequence not known to occur in nature) | – | below the baseline of HA alone | –
EHWCM (Short peptide sequence not known to occur in nature) | – | generated a large T-cell response | –
EMWCM (Short peptide sequence not known to occur in nature) | – | did not | –
KWCEC (Short peptide sequence not known to occur in nature) [5mer4] | caused a significant antibody response | – | T cell response (ELISPOT) compared with other adjuvants, FIG. 16 [2]: stronger than that generated with alum alone and comparable to that generated by CpG
KYMCW (Short peptide sequence not known to occur in nature) [5mer7] | caused a significant antibody response | – | –
WHKCE (Short peptide sequence not known to occur in nature) [5mer2] | did not cause a strong neutralizing antibody response | – | –
free peptide (KWCEC; Short peptide sequence not known to occur in nature) | – | – | Total anti-HBS antibodies (ELISA) response [3]: strong response at both 6 and 8 weeks post immunization; antibody response (ELISA) after fluviral vaccination [4]: stronger response at both 6 and 8 weeks post immunization
